Assay results published in patent publication US20030203969A1, “Pharmaceutically active aromatic guanylhydrazones” (priority 2000, published 2003).

How the values were obtained:
[1] = tested on: omni-drug-resistant HIV-1; test: Inhibition of omni-drug-resistant HIV-1 in PM1 cells (p24); type: cell-based
Procedure: PM1 cells were infected with an “omni-drug-resistant HIV-1” (recombinant HIV-1 NL4-3 in which the Protease gene and the 5′ part of the Reverse Transcriptase gene was replaced by the corresponding sequences from a omni-drug-resistant clinical isolate, resistant to all currently available anti-HIV drugs. Infected cells were incubated with Compound No. 4 at a concentration of 250, 500 and 1000 nM or DMSO (control). The culture medium was changed every third day. Cell viability (Trypan-blue staining), cell counts and p24 levels were determined at day 6 and 12.
At day 12 of infection, the virus replicated vigorously in untreated cultures. Numbers describe percent inhibition of HIV-1 replication as compared to control experiments.

PI-resistant HIV-1 = test: Inhibition of multiple anti-retroviral drug resistant HIV-1 strains: PI-resistant; type: cell-based
Procedure: In addition, various different “types” of multiple anti-retroviral drug resistant HIV-1 strains were also tested: […]

HepG2-2.2.15 cells = test: Cell viability of HepG2-2.2.15 cells (dye uptake); type: cell-based, human; conditions: inhibits cell growth by 50%, read-out: TC50 (the source's name)
Procedure: (§1) Human HepG2-2.2.15 cells (ATCC Cat. No. CRL-11997), chronically infected with HBV, are plated in 96-well microtiter plates in DMEM medium supplemented with fetal bovine serum. After incubation at 37° C. in a humidified, 5% CO2 environment for 16-24 hours, the monolayer of HepG2-2.2.15 cells is washed and the medium is replaced with complete medium containing various concentrations of test compound. Every three days during the experiments, the culture medium is replaced with fresh medium containing the appropriately diluted test compound. Six days following the initial administration of the test compound, the cell culture supernatant is collected and clarified by centrifugation. The cell viability is evaluated by a dye uptake procedure (Promega's Cell Titer Aqueous One Solution). Virion-associated HBV DNA present in the tissue culture supernatant is amplified employing PCR technology using primer pairs derived from the HBV strain ayw. Subsequently, the PCR-amplified HBV DNA is detected in real-time by monitoring increases in fluorescence signals that result from exonucleolytic degradation of a quenched fluorescent probe molecule following hybridization of the probe to the amplified HBV DNA (TaqMan; Perkin-Elmer).

[2] = tested on: Lamivudine-resistant, mutant HBV; test: Transfected Lamivudine-resistant mutant HBV production in HepG2 cells; type: cell-based, Hepatitis B virus
Procedure: as §1
The same type of experiments was additionally performed with a mutant, Lamivudine-resistant HBV strain, which was transfected into HepG2 cells. […]

[3] = tested on: herpes simplex virus type 1 (strain HF); test: HSV-1 cytopathic effect (CPE) inhibition assay in Vero cells (MTS); type: cell-based
Description: A virus-induced cytopathic effects (CPE)-inhibition assay procedure using Promega's Cell Titer Aqueous One Solution (MTS, metabolic dye) is employed to evaluate compounds for antiviral activity against herpes simplex virus type 1 (strain HF) in Vero cells (African green monkey cells, ATCC Cat. No. CCL-81). Vero cells are pregrown in 96-well tissue culture plates using Dulbecco's Modified Eagle's Medium (DMEM) supplemented with 10% heat-inactivated fetal bovine serum (FBS), L-glutamine, penicillin, and streptomycin. To each of the replicate cell cultures is added 50 μl of the test drug solution and 50 μl of virus suspension. Cell controls containing medium alone, virus-infected controls containing medium and virus, drug cytotoxicity controls containing medium and each drug concentration, reagent controls containing culture medium only (no cells), and drug calorimetric controls containing drug and medium (no cells) are run simultaneously with the test samples. The plates are incubated at 37° C. in a humidified atmosphere containing 5% CO2 until maximum CPE is observed in the untreated virus control cultures (Day 5). CPE inhibition is determined by a dye (MTS) uptake procedure. […] The purple color of the MTS formazan is then measured spectrophotometrically at 490/650 nm. […]

[4] = tested on: MRC-5 (human embryonic lung fibroblast) cells; test: Drug toxicity in MRC-5 cells (CellTiter 96); type: cell-based; conditions: six day incubation, read-out: TC50 (the source's name)
Procedure: Drug toxicity is determined in parallel by seeding MRC-5 cells in 96 well plates and adding drugs to triplicate wells at two dilutions. After a six day incubation period, cell viability is determined using CellTiter 96 Aqueous One Solution (Promega).

E. Coli XL-1 blue strain = test: Growth assay for E. coli (optical density at 610 nm); type: cell-based; conditions: LB medium, 37° C., one day; read-out: IC50 (μM) E. coli proliferation
Procedure: We used the E. Coli XL-1 blue strain (Stratagene) for the investigation of antibacterial activity. During this experiments LB medium was used for E. coil growth. LB was prepared as follows: 1% trypton (weight/volume), 0.5% Yeast extract (weight/volume), and 1.5% NaCl (weight/volume) were dissolved in water and autoclaved. The media contained the inhibitor at 100 μM, 10 μM, or 1 μM concentrations, respectively.
The assay was performed as follows: bacteria were seeded to 96-well plates containing the respective inhibitors. The bacteria-containing plates were incubated at 37° C. for one day. After incubation time, E. coli growth was assayed by the measurement of the optical density at 610 nm wavelength.

HIV = test: Relevant HIV cellular systems (summary statements); type: cell-based
Description: Thus another aspect of the present invention is directed to the use of the compounds of the general formula (I) and/or pharmaceutically active salts as inhibitors of elF-5A activation and HIV replication.
The present invention therefore provides a genus of guanylhydrazone-substituted compounds that are useful as inhibitors of HIV-1, HIV-2, HTLV-I as well as for treating diseases associated with those viruses.

For `CC(=NNC(=N)N)c1cc(NC(=O)CCCCCCCCC(=O)Nc2cc(C(C)=NNC(=N)N)cc(C(C)=NNC(=N)N)c2)cc(C(C)=NNC(=N)N)c1` [Compound 4, N,N′-bis (3,5-diacetylphenyl) decane diamide tetrakis (amidinohydrazone)], the “percent inhibition of HIV-1 replication as compared to control” value (“percent inhibition of HIV-1 replication” for short) ([1]; omni-drug-resistant HIV-1, 0.25 μM, d6) was 15%, the “percent inhibition of HIV-1 replication” value ([1]; omni-drug-resistant HIV-1, 0.25 μM, d12) was 64% and the “percent inhibition of HIV-1 replication” value ([1]; omni-drug-resistant HIV-1, 0.5 μM, d6) was 30%. For the same compound, the “percent inhibition of HIV-1 replication” value ([1]; omni-drug-resistant HIV-1, 0.5 μM, d12) was 95%, the “percent inhibition of HIV-1 replication” value ([1]; omni-drug-resistant HIV-1, 1.0 μM, d6) was 58% and the “percent inhibition of HIV-1 replication” value ([1]; omni-drug-resistant HIV-1, 1.0 μM, d12) was 97%. For the same compound, the “[%] inhibition of virus replication” value (PI-resistant HIV-1; PI-resistant HIV-1, 0.5 μM) was 50%, the “[%] inhibition of virus replication” value (PI-resistant HIV-1; PI-resistant HIV-1, 1.0 μM) was 95% and the CC50 (HepG2-2.2.15 cells) was over 20000 nM. The Comments ([2]; Lamivudine-resistant mutant HBV) was “Active”, the IC50 ([2]; Lamivudine-resistant mutant HBV transfected into HepG2 cells, read-out: IC50 (μM) Virion-DNA) was 2.78 µM and the Comments ([3]; HSV-1, Vero cells) was “Active”. The IC50 ([3]; HSV-infected Vero cells, reduces the CPE by 50%) was 1560 nM, the CC50 [4] was 13600 nM and the IC50 (E. Coli XL-1 blue strain) was 1 µM. For the same compound, the “cellular toxicities at effective antiviral dosages” value (HIV; HIV cellular systems) was “without apparent cellular toxicities” and the “inhibition of HIV replication” value (HIV; T-cell-tropic, macrophage-tropic, primary patient isolates, multidrug-resistant HIV strains) was “submicromolar range”.
